The assay deals with Tyrosine-protein kinase Lyn (Homo sapiens) (UniProt P07948). Briefly: inhibitors of human LYN isoform A activity – biochemical, Z'-LYTE, FRET readout, dose response (AID 1671318). As to conditions: Z'-LYTE FRET kinase assay, recombinant LYN A.

Each structure is given as a SMILES string.

Sequence of Tyrosine-protein kinase Lyn (Homo sapiens) (P07948 whole entry, looked up, canonical isoform): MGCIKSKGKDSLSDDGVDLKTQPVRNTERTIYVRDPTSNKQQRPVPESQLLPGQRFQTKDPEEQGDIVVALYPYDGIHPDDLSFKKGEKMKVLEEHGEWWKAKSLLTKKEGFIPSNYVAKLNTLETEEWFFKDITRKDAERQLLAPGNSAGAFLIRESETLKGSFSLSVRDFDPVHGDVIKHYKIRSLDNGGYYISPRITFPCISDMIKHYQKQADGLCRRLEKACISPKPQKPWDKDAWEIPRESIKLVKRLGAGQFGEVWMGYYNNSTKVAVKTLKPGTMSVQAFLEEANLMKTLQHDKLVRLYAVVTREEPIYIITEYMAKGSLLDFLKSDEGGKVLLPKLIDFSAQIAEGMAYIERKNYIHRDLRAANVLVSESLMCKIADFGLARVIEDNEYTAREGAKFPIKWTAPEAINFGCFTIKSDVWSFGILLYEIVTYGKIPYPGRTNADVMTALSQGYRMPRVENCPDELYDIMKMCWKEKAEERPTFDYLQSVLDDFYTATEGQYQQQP

Usually IC50 stands for the concentration at which inhibition is half-maximal. Turning to `COc1cc2ncnc(Nc3cccc(Cl)c3)c2cc1OC`, the IC50 is 208 nM.

The record behind these values is PubChem BioAssay AID1671318.
